Series [1] in a line: Solubility studies using micronized glibenclamide: unbuffered saline. In kind it is physicochemical. The following applies: thermodynamic from solid. The text has this:
This was done iteratively until pH was stable. “GLB” indicates glibenclamide.

The conditions of series [2]: 0.1 M, pH 10 phosphate-buffered aqueous solution (300 mOsm/L); cited from earlier work.
A short description of series [3]: Solubility studies using micronized glibenclamide: unbuffered 2% sucrose and water. The format is physicochemical. To be noted: for GLB mg/ml (glibenclamide in solution): 2% sucrose in water; for solubility: aqueous buffer, thermodynamic from solid, water without bulking agent. The protocol:
Micronized glibenclamide in 2% sucrose (as a proxy for glucose, fructose, mannose, galactose, mannitol, sorbitol, lactose, trehalose, and other sugars, including mono-saccharides, di-saccharides) in water was prepared, as recorded in the left-hand column of Table 4. In addition, micronized glibenclamide was prepared in water without a bulking agent (see Table 4, right column). These were unbuffered solutions, so that 1) pH was adjusted to the target value, then 2) glibenclamide was added (which lowered the pH) and then 3) pH was re-adjusted up to the target. This was done iteratively until the pH was stable.

The conditions of series [4]: cited from earlier work.
A short description of series [5]: Solubility of glibenclamide in buffered water solutions (Britton Robinson). In kind it is physicochemical. From the text: Buffered water solutions (Britton Robinson buffers) were used to determine the amounts of glibenclamide soluble in buffered solutions without added salt or added sugar.
The conditions of series [6]: all measured pH values from pH 4 to pH 9; Britton-Robinson buffer; cited from earlier work.
Series [7] is described as follows: Stated physicochemical properties (pKa, water and ethanol solubility). The following applies: 109 mg/L vs. 4 mg/L.

Converted amounts (≈) assume the structure as drawn. Read-outs that look alike come from different tables or passages of the source.

As for `COc1ccc(Cl)cc1C(=O)NCCc1ccc(S(=O)(=O)NC(=O)NC2CCCCC2)cc1` [Glibenclamide, 5-chloro-N-[2-[4-(cyclohexylcarbamoylsulfamoyl)phenyl]ethyl]-2-methoxy-benzamide], the solubility in series [1] (0.9% saline in water, pH 8.07, saline or isotonic, Saline 0.9%, pH 8.070, read-out: GLB mg/ml (glibenclamide in solution)) amounted to 0.024 mg/mL (≈ 48.6 µM); in series [1] (0.9% saline in water, pH 8.44, saline or isotonic, Saline 0.9%, pH 8.440, read-out: GLB mg/ml (glibenclamide in solution)), 0.109 mg/mL (≈ 221 µM); in series [1] (0.9% saline in water, pH 9.18, saline or isotonic, Saline 0.9%, pH 9.180, read-out: GLB mg/ml (glibenclamide in solution)), 0.435 mg/mL (≈ 881 µM); in series [1] (0.9% saline in water, pH 9.92, saline or isotonic, Saline 0.9%, pH 9.920, read-out: GLB mg/ml (glibenclamide in solution)) it was 0.42 mg/mL (≈ 850 µM); in series [1] (0.9% saline in water, pH 10.48, saline or isotonic, Saline 0.9%, pH 10.480, read-out: GLB mg/ml (glibenclamide in solution)) it was 0.456 mg/mL (≈ 923 µM); in series [1] (0.9% saline in water, pH 11.06, saline or isotonic, Saline 0.9%, pH 11.060, read-out: GLB mg/ml (glibenclamide in solution)), 0.445 mg/mL (≈ 901 µM). Moreover, the solubility in series [1] (0.9% saline in water, pH 11.61, saline or isotonic, Saline 0.9%, pH 11.610, read-out: GLB mg/ml (glibenclamide in solution)) is 0.538 mg/mL (≈ 1090 µM); in series [1] (0.9% saline in water, pH 12.07, saline or isotonic, Saline 0.9%, pH 12.070, read-out: GLB mg/ml (glibenclamide in solution)) it was 0.476 mg/mL (≈ 964 µM); in series [1] (2% saline in water, pH 12.1, saline or isotonic, Saline 2%, pH 12.10, read-out: GLB mg/ml (glibenclamide in solution)) it was 0.216 mg/mL (≈ 437 µM); in series [1] (2% saline in water, saline or isotonic, Saline 2%, pH 7.24, read-out: GLB mg/ml (glibenclamide in solution)) it was 0.012 mg/mL (≈ 24.3 µM); in series [1] (2% saline in water, saline or isotonic, Saline 2%, pH 7.97, read-out: GLB mg/ml (glibenclamide in solution)) it was 0.028 mg/mL (≈ 56.7 µM); in series [1] (2% saline in water, saline or isotonic, Saline 2%, pH 8.34, read-out: GLB mg/ml (glibenclamide in solution)), 0.087 mg/mL (≈ 176 µM). The solubility in series [1] (2% saline in water, saline or isotonic, Saline 2%, pH 8.89, read-out: GLB mg/ml (glibenclamide in solution)) was found to be 0.214 mg/mL (≈ 433 µM); in series [1] (2% saline in water, saline or isotonic, Saline 2%, pH 8.94, read-out: GLB mg/ml (glibenclamide in solution)), 0.233 mg/mL (≈ 472 µM); in series [1] (2% saline in water, saline or isotonic, Saline 2%, pH 9.49, read-out: GLB mg/ml (glibenclamide in solution)) it was 0.205 mg/mL (≈ 415 µM); in series [1] (2% saline in water, saline or isotonic, Saline 2%, pH 10.31, read-out: GLB mg/ml (glibenclamide in solution)) it was 0.215 mg/mL (≈ 435 µM); in series [1] (2% saline in water, saline or isotonic, Saline 2%, pH 10.98, read-out: GLB mg/ml (glibenclamide in solution)) it was 0.192 mg/mL (≈ 389 µM); in series [1] (2% saline in water, saline or isotonic, Saline 2%, pH 11.49, read-out: GLB mg/ml (glibenclamide in solution)), 0.194 mg/mL (≈ 393 µM). The solubility in series [2] is 500 µg/mL (≈ 1010 µM); in series [3] (pH 7.36, read-out: GLB mg/ml (glibenclamide in solution)) it was 0.019 mg/mL (≈ 38.5 µM); in series [3] (pH 7.55, read-out: GLB mg/ml (glibenclamide in solution)), 0.096 mg/mL (≈ 194 µM); in series [3] (pH 8.65, read-out: GLB mg/ml (glibenclamide in solution)), 0.799 mg/mL (≈ 1620 µM); in series [3] (pH 8.73, read-out: GLB mg/ml (glibenclamide in solution)), 0.087 mg/mL (≈ 176 µM); in series [3] (pH 9.13, read-out: GLB mg/ml (glibenclamide in solution)), 0.205 mg/mL (≈ 415 µM). Besides, the solubility in series [3] (pH 9.57, read-out: GLB mg/ml (glibenclamide in solution)) amounted to 3.97 mg/mL (≈ 8030 µM); in series [3] (pH 10.28, read-out: GLB mg/ml (glibenclamide in solution)) it was 4.87 mg/mL (≈ 9860 µM); in series [3] (pH 11.19, read-out: GLB mg/ml (glibenclamide in solution)) it was 4.67 mg/mL (≈ 9460 µM); in series [3] (pH 11.44, read-out: GLB mg/ml (glibenclamide in solution)) it was 4.84 mg/mL (≈ 9800 µM); in series [3] (pH 12.27, read-out: GLB mg/ml (glibenclamide in solution)), 2.51 mg/mL (≈ 5090 µM); in series [5] (Britton Robinson buffer in water, aqueous buffer, pH 9.000, read-out: GLB mg/mL (glibenclamide in solution)), 0.14 mg/mL (≈ 283 µM). The solubility in series [5] (Britton Robinson buffer in water, pH 9.7, aqueous buffer, pH 9.700, read-out: GLB mg/mL (glibenclamide in solution)) was found to be 0.85 mg/mL (≈ 1720 µM); in series [5] (Britton Robinson buffer, aqueous buffer, pH 5.3, read-out: GLB mg/mL (glibenclamide in solution)) it was 0.01 mg/mL (≈ 20.2 µM); in series [5] (Britton Robinson buffer, aqueous buffer, pH 8.000, read-out: GLB mg/mL (glibenclamide in solution)), 0.02 mg/mL (≈ 40.5 µM); in series [5] (Britton Robinson buffer, aqueous buffer, pH 8.3, read-out: GLB mg/mL (glibenclamide in solution)), 0.02 mg/mL (≈ 40.5 µM); in series [5] (Britton Robinson buffer, pH 6.2, aqueous buffer, pH 6.200, read-out: GLB mg/mL (glibenclamide in solution)) it was 0.01 mg/mL (≈ 20.2 µM); in series [5] (Britton Robinson buffer, pH 7.1, aqueous buffer, pH 7.100, read-out: GLB mg/mL (glibenclamide in solution)), 0.01 mg/mL (≈ 20.2 µM). The solubility in series [5] (Britton Robinson buffer, pH 10.1, aqueous buffer, pH 10.100, read-out: GLB mg/mL (glibenclamide in solution)) is 2.35 mg/mL (≈ 4760 µM); in series [6], “below 1 mg/mL”. Besides, the “GLB mg/ml (glibenclamide in solution)” value in series [3] (pH 7.45) amounted to 0.051 mg/mL; in series [3] (pH 7.50) it was 0.099 mg/mL; in series [3] (pH 8.24), 0.310 mg/mL; in series [3] (pH 8.66) it was 1.069 mg/mL; in series [3] (pH 9.16), 2.608 mg/mL; in series [3] (pH 9.53) it was 3.060 mg/mL. Moreover, the “GLB mg/ml (glibenclamide in solution)” value in series [3] (pH 9.74) stood at 4.103 mg/mL; in series [3] (pH 11.23), 3.811 mg/mL; in series [3] (pH 11.30) it was 3.416 mg/mL; in series [3] (pH 11.99) it was 1.904 mg/mL. The ethanol solubility in series [4] was 5000 µg/mL.

On to `CCOc1cc(CC(=O)N[C@@H](CC(C)C)c2ccccc2N2CCCCC2)ccc1C(=O)O` [Repaglinide], for which the water solubility in series [4] (pH 9) was 600 µg/mL (≈ 1330 µM).

Take `CCCCNC(=O)NS(=O)(=O)c1ccc(C)cc1` [Tolbutamide]: in series [7], the “times more soluble in water than glibenclamide” value worked out at 24 times. In addition, the water solubility in series [4] is 109 µg/mL (≈ 403 µM).

These data come from patent US8858997B2, “Formulations and methods for lyophilization and lyophilates provided thereby” (Remedy Pharmaceuticals, Inc., priority 2007, dated 2014).
